From a melting point compilation (Tetko et al.; mined from patent text by program, amines drawn as free bases though some values may be those of a salt)

| melting point | Compound |
| --- | --- |
| 163 to 165 °C | CC1(C)CCc2cc(O)c(O)cc2C1=O |
| 130 to 132 °C | CSC(C(=O)c1nsc(NC=O)n1)S(C)=O (stereo not drawn) |
| 147 to 161 °C | Cc1cccc(-c2nc(C(C)C)[nH]c2-c2ccc(F)c(-c3ccc(CC4CNCCO4)cc3)c2)n1 (stereo not drawn) |
| 146 to 147 °C | COc1nc2ccccc2c(-c2ccccc2)c1C(=O)N(C)Cc1cc(C(F)(F)F)cc(C(F)(F)F)c1 |
| > 290 °C | Cc1ccc2c3c(c(=O)[nH]c2c1)C(=O)c1ccccc1-3 |
| 122 to 123 °C | Cc1c(Br)c2cnnc(OCc3ccccc3)c2n1Cc1ccccc1 |
| 132 °C | COC(=O)C=CC=Cc1cc([N+](=O)[O-])ccc1Cl |
| 152 °C | CC(=O)Nc1ccc(C(=O)c2cc(-c3ccc(NC(C)=O)cc3)c(N3CCOCC3)s2)cc1 |
| 202 to 204 °C | O=C1N(Cc2nc3ncccc3o2)c2ccccc2C12COc1cc3c(cc12)OCO3 (stereo not drawn) |
| 158 to 159 °C | Cc1c(NC(=O)c2ccc(-c3cccc(F)c3)cc2)ccc2cc(CN3CCCC3)cnc12 |
| 186 °C | O=C(OCCn1cnc2c(Cl)nc3ccccc3c21)c1ccccc1 |
| 160 to 161 °C | CC(C)(C)C1=C(c2cc(O)c3nc(-c4ccccc4)oc3c2)OCC1(C)C |
| 61.5 to 64.5 °C | CCOC(=O)C1=C(C)N=C(OC)N(C(=O)OCC)C1c1cccc([N+](=O)[O-])c1 (stereo not drawn) |
| 225 to 229 °C | CC1COc2c(N3CCC(n4ccnn4)C3)c(F)cc3c(=O)c(C(=O)O)cn1c23 (single isomer, unassigned; (-)) |
| 81 to 82 °C | CC(C)(CO)CCCNC(=O)NCCCC(C)(C)CO |
| 191 to 193 °C | CSc1ccccc1C1C(=O)c2ccccc2C1=O |
| 104 to 108 °C | Cc1cc(Cn2nc(C(F)(F)C(F)(F)F)nc2C(F)(F)F)ccc1NC(=O)c1cccc(Br)c1C(=O)N[C@@H](C)CS(C)(=O)=O |
| 182 to 190 °C | O=Cc1ccc(C(=O)O)c(SCc2ccccc2)c1 |
| 184 to 186 °C | O=C(CS)Nc1ccc(C(=O)NCCO)cc1 |
| 174 to 176 °C | CC1(C)OC(=O)C(Sc2nccs2)=C1c1ccc(S(C)(=O)=O)cc1 |
| 183 to 184 °C | Cc1cc(S(F)(F)(F)(F)F)ccc1C(=O)NC(=N)N |

| melting point | Compound |
| --- | --- |
| 175 to 176 °C | O=c1ccc2cnc(Nc3ccccc3)nc2n1CCCOc1ccccc1 |
| 169 to 173 °C | COc1cc2c(=O)ccn(C)c2cc1OC |
| 133 to 136 °C | CCOC(=O)Cc1cc(OC)c2c(c1)C1(O)C(=O)c3ccccc3C1(O)O2 (stereo not drawn) |
| 191 °C | COC(=O)C1=C(O)c2ccc(F)cc2S(=O)(=O)N1C |
| 121 to 125 °C | O=C(NCC12CC3CC(CC(C3)C1)C2)c1cc(-c2cc(F)c(F)cc2C(=O)O)ccc1Cl |
| 213 °C | COc1ccc(C=CC(=O)N2CCc3c([nH]c4ccccc34)C2c2ccc3c(c2)OCO3)cc1O (stereo not drawn) |
| 123 to 124 °C | NC(=O)C(c1ccc(F)c(F)c1)c1ccccn1 (racemic) |
| 278 to 280 °C | CC1CCN(c2ccc(Nc3ncc4c(n3)SCC(=O)N4)cc2)CC1 |
| 123 to 125 °C | CCC1(CCCCN2CCN(c3cccc(OC)c3)CC2)C(=O)Nc2ccccc21 (stereo not drawn) |
| 120 to 123 °C | CC(C)Nc1ncc2c(n1)N(C)C(=O)C2 |
| 254 to 256 °C | Cc1cc(C)c(N(C)C(=O)CN2C(=O)c3ccccc3C2=O)c(C)c1CO |
| 101 to 102 °C | [N-]=[N+]=NC(C(=O)O)C1c2ccccc2CCc2ccccc21 (stereo not drawn) |
| 75 to 76 °C | CCCCCCCCCCCCCCCC(=O)NC(C)CO (stereo not drawn) |
| 118 to 121 °C | Cc1csc(-c2nnc(NC(C)c3ccccc3)c3ccccc23)c1 (stereo not drawn) |
| 113 to 114 °C | C/C(=C\c1ccc(C(=O)OCc2ccccc2)cc1)c1ccc2c(c1)C(C)(C)CCC2(C)C |
| 94 to 96 °C | CCCc1cc(C(=O)O)cc(CCC)c1OCCCCCCc1cccc(O)c1O |
| 104 to 105 °C | O=C(O)CCC(=NOCc1ccc(OCc2csc(-c3ccccc3)n2)cc1)c1ccccc1 |
| 206 to 209 °C | CC(Cn1ccnc1)Cn1c(=O)c2ccc(Cl)cc2n(C)c1=O (stereo not drawn) |
| 71 to 73 °C | CC(C)(C)Nc1nccc(C#C[Si](C)(C)C)n1 |
| 202 to 203 °C | CS(=O)(=O)c1ccc(-c2cnn(C3CCC3)c(=O)c2-c2ccc(F)cc2)cc1 |
| 205 to 207 °C | CCCc1c(OCCCCCC(=O)c2ccc3cc(O)c(O)cc3c2)ccc(C(=O)O)c1O |

| melting point | Compound |
| --- | --- |
| 168 to 170 °C | COc1ccc(-c2cc(Nc3c(C)cc(C)cc3C)nc(C)n2)cc1OC |
| 96 to 99 °C | CC1(C)[C@@H](CNc2ncccc2C#N)CC[C@@]1(C)NCC(=O)N1C[C@@H](F)C[C@H]1C#N |
| 232 to 234 °C | COc1cc(C)c2ccc(N3C(=O)C4=C(SCCS4)C3OC(=O)N3CCN(C)CC3)nc2n1 (stereo not drawn) |
| 197 °C | Cc1ccc2c(Sc3cc(Cl)cc(Cl)c3)c(CC(N)=O)[nH]c2c1 |
| 114 to 115 °C | CCSC1=NCC(=O)N1c1ccc(F)cc1 |
| 162 °C | CCCC(CCCCNC(=O)c1cc2ccc(C3OC(CO)C(O)C(O)C3O)cc2oc1=O)C(=O)O (stereo not drawn) |
| 95 °C | O=C(NC(=O)N1CCC(Cc2ccccc2)CC1)c1ccc(O)cc1 |
| 275 °C | Cc1cnc2c(c1)C(=O)c1cc(-c3ccccc3)c(=O)[nH]c1C2=O |
| 172 to 173 °C | CS(=O)(=O)c1ccc(-n2nc(C(=O)O)cc2-c2ccc(-c3ccco3)cc2)cc1F |
| 160 to 162 °C | CC(C)(C)OC(=O)NC1CCCOCC=CC2CC2(C(=O)NS(=O)(=O)C2CC2)NC(=O)C2CC(OC(=O)c3ccc(-c4ccccc4)cc3)CN2C1=O (stereo not drawn) |
| 96 °C | Cc1ccc2oc(=O)c(-c3ccccc3)c(OCCN3CCOCC3)c2c1 |
| 119 to 120 °C | Cc1ccc(C2CCN(C(=O)CCC(=O)c3ccc4c(c3)CNCC4)CC2)cc1 |
| 158 to 160 °C | CC(=O)c1c(C)nc2c(OCc3c(Cl)ccc(S(=O)(=O)N4CCC[C@H]4C(=O)NCCCNC(=O)c4ccc(C=NN)cc4)c3Cl)cccn12 |
| 170 to 172 °C | COc1ccc(CCC(=O)Nc2c(C)c(C)c3c(c2C)[C@@H](c2ccc(C)cc2)C(C)(C)O3)cc1 |
| 66.5 to 68.5 °C | Cc1cn(C(C(=O)N(C)C)C(C)C)nc1-c1ccccc1 (stereo not drawn) |
| 119 to 121 °C | Cc1nc2cnccc2n1-c1ccc(OCc2cccc(SCc3nc4cc(F)ccc4s3)c2)cc1 |
| 284 to 285 °C | CN1N=C(c2ccc(F)cc2)c2ccc(C#N)cc2CS1(=O)=O |
| 193 to 195 °C | O=C(NC1(C(=O)O)CCCCC1)C(CS)Cc1ccccc1 (stereo not drawn) |
| 178 to 179 °C | C=C1C[C@@H](C(=O)O)[C@H](C(=O)O)C1 (relative stereo) |
| 114 to 116 °C | CCCSc1cc(-c2c[nH]nc2C(F)(F)F)ccc1C(=O)OC |
| 233 to 235 °C | Cc1c(N2CCNCC2)nn2c(-c3ccncc3)c(-c3ccc(F)cc3)nc2c1C |

| Compound | melting point |
| --- | --- |
| Cc1ncc2n1-c1ccc(Cl)cc1N(c1ccccc1)C(=O)C2 | 276 to 278 °C |
| COC(=O)C12COc3cc(C(F)(F)F)ccc3C1=NN(C(=O)Nc1ccc(Br)cn1)C2 (stereo not drawn) | 179 to 181 °C |
| CC(=O)N1N=C(c2ccc([N+](=O)[O-])cc2)c2cc3c(cc2C=C1C)OCO3 | 205 to 207 °C |
| COC(=O)C1C(Sc2ccccc2)CC2CCC1N2C (stereo not drawn) | 55 to 57 °C |
| N#Cc1ccc(N2CCC(O)C2)c2ccccc12 (stereo not drawn) | 138 to 139 °C |
